Test results reported in BindingDB's records for doi:10.1016/j.bmcl.2010.03.073 (Methylgene, 2010).

What was measured:
[1] = Inhibition of c-Met-mediated scattering in HGF-stimulated human DU145 cells
[2] = Inhibition of c-Met-mediated cell migration of human A549 cells by would healing

IC50 [1]: 2 µM | IC50 [2]: 0.4 µM
SMILES: Cn1cnc(-c2cc3nccc(Oc4ccc(NC(=O)c5cnn(-c6ccccc6)c5C(F)(F)F)cc4F)c3s2)c1 [N-(3-fluoro-4-(2-(1-methyl-1H-imidazol-4-yl)thieno[3,2-b]pyridin-7-yloxy)phenyl)-1-phenyl-5-(trifluoromethyl)-1H-pyrazole-4-carboxamide]
